pKi: −log10 of the molar value.
Molecular target: human IRAK4 (Homo sapiens (Human), UniProt Q9NWZ3)
Assay: IRAK4 kinase inhibition, Transcreener fluorescence polarization ADP assay
Format: biochemical
Conditions: recombinant full-length His6-IRAK4; 125 uM ATP; 90 min; Ki computed using ATP Km 642 uM
Procedure: Compounds were assayed for inhibition of human IRAK4 and IRAK1 catalytic activity using recombinant enzyme produced from insect cells. Full-length IRAK4 protein, carrying an N-terminal His6-Tag, was obtained from Life Technologies (Carlsbad, Calif., USA). The IRAK1 construct was produced internally and was comprised of IRAK1 residues Arg194 to Ser712, preceded by an NH2-terminal His6 tag and the coding sequence for glutathione-S-transferase.

Sequence of human IRAK4 (Q9NWZ3 whole entry): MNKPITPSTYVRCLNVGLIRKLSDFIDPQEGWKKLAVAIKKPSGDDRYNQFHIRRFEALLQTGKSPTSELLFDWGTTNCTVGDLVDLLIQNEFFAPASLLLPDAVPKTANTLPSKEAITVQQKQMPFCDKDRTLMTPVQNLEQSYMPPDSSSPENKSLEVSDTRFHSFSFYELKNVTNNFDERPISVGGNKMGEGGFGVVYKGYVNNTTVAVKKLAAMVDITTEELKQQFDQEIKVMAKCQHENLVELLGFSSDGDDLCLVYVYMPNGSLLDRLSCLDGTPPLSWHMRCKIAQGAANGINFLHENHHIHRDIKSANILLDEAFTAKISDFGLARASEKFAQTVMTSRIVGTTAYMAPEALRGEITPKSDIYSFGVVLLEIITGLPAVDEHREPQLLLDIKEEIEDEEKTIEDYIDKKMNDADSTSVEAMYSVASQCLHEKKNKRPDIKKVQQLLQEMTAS

SMILES | pKi
C[C@]1(CO)Cc2cc(NC(=O)c3cnn4cccnc34)c(OC(F)(F)F)cc2O1 [Example 171, (R)—N-(2-(Hydroxymethyl)-2-methyl-6-(trifluoromethoxy)-2,3-dihydrobenzofuran-5-yl)pyrazolo[1,5-a]pyrimidine-3-carboxamide] | 7.42
CC(C)(O)[C@H](F)CN1Cc2cc(NC(=O)c3cnn4cccnc34)c(Cl)cc2C1=O [Example 521, N-[6-chloro-2-[(2R)-2-fluoro-3-hydroxy-3-methyl-butyl]-1-oxo-isoindolin-5-yl]pyrazolo[1,5-a]pyrimidine-3-carboxamide] | 8.40
C[C@@]1(O)CCCN(c2cc3c(cc2NC(=O)c2cnn4cccnc24)C[C@@](C)(CO)O3)CC1 (single isomer, unassigned) [Example 331] | 7.92
C[C@@]1(CC#N)COc2cc(N3CCOCC3)c(NC(=O)c3cnn4cccnc34)cc2C1 [Example 519, N-[(3R)-3-(cyanomethyl)-3-methyl-7-morpholino-chroman-6-yl]pyrazolo[1,5-a]pyrimidine-3-carboxamide] | 7.41
C[C@@]1(CO)Cc2cc(NC(=O)c3cnn4cccnc34)c(N3CCC([C@](C)(O)C(F)(F)F)CC3)cc2O1 [Example 412, N—((S)-2-(hydroxymethyl)-2-methyl-6-(4-((S)-1,1,1-trifluoro-2-hydroxypropan-2-yl)piperidin-1-yl)-2,3-dihydrobenzofuran-5-yl)pyrazolo[1,5-a]pyrimidine-3-carboxamide] | 8.23
CN1CC[C@H](N2Cc3cc(NC(=O)c4cnn5cccnc45)c(N4CCOCC4)cc3C2=O)C1=O [Example 554, N-[2-[(3S)-1-methyl-2-oxo-pyrrolidin-3-yl]-6-morpholino-1-oxo-isoindolin-5-yl]pyrazolo[1,5-a]pyrimidine-3-carboxamide] | 7.85
CC(C)(O)[C@@]1(C)Cc2cc(NC(=O)c3cnn4cccnc34)c(O[C@H]3CC[C@H](O)CC3)cc2O1 [Example 315, N-[(2R)-6-(trans-4-Hydroxycyclo-hexoxy)-2-(1-hydroxy-1-methyl-ethyl)-2-methyl-3H-benzofuran-5-yl]pyrazolo[1,5-a]pyrimidine-3-carboxamide] | 6.28
O=C(Nc1cc2c(cc1N1CCN(CC(F)F)CC1)C(=O)N(CC(F)(F)F)C2)c1cnn2cccnc12 [Example 266, N-[6-[4-(2,2-Difluoroethyl)piperazin-1-yl]-1-oxo-2-(2,2,2-trifluoroethyl)isoindolin-5-yl]pyrazolo[1,5-a]pyrimidine-3-carboxamide] | 8.05
O=C(Nc1cc2c(cc1N1CCOCC1)C(=O)N([C@@H]1CCC[C@@H]1CO)C2)c1cnn2cccnc12 [Example 565, N-(2-((1R,2S)-2-(hydroxymethyl)cyclopentyl)-6-morpholino-1-oxoisoindolin-5-yl)pyrazolo[1,5-a]pyrimidine-3-carboxamide] | 7.03
C[C@]1(CO)CCc2cc(NC(=O)c3cnn4cccnc34)c(N3CCOCC3)cc2O1 (single isomer, unassigned) [Example 437] | 7.85
CC1(C)CN(c2cc3c(cc2NC(=O)c2cnn4cccnc24)CC(C)(CO)O3)CCO1 (stereo not shown) [Example 17, N-(6-(2,2-Dimethylmorpholino)-2-(hydroxymethyl)-2-methyl-2,3-dihydrobenzofuran-5-yl)pyrazolo[1,5-a]pyrimidine-3-carboxamide] | 6.74
CC1(C)Cc2cc(NC(=O)c3cnn4cccnc34)c(N3CCCNCC3)cc2O1 [Example 116, N-(6-(1,4-diazepan-1-yl)-2,2-dimethyl-2,3-dihydrobenzofuran-5-yl)pyrazolo[1,5-a]pyrimidine-3-carboxamide] | 7.74
CC1(C)Cc2cc(NC(=O)c3cnn4cccnc34)c(N3CCN(CC(=O)NCC4CCCO4)CC3)cc2O1 (stereo not shown) [Example 440, N-(2,2-dimethyl-6-(4-(2-oxo-2-(((tetrahydrofuran-2-yl)methyl)amino)ethyl)piperazin-1-yl)-2,3-dihydrobenzofuran-5-yl)pyrazolo[1,5-a]pyrimidine-3-carboxamide] | 7.28
C[C@@]1(C(F)(F)F)Cc2cc(NC(=O)c3cnn4cccnc34)c(N3CCOCC3)cc2O1 [Example 77, (S)—N-(2-methyl-6-morpholino-2-(trifluoromethyl)-2,3-dihydrobenzofuran-5-yl)pyrazolo[1,5-a]pyrimidine-3-carboxamide] | 7.89
CC1(C)Cc2cc(NC(=O)c3cnn4cc(C(F)(F)F)cnc34)c(N3CCOCC3)cc2O1 [Example 69, N-(2,2-Dimethyl-6-morpholino-2,3-dihydrobenzofuran-5-yl)-6-(trifluoromethyl)pyrazolo[1,5-a]pyrimidine-3-carboxamide] | 7.57
CC(C)(O)[C@H](F)CN1Cc2cc(NC(=O)c3cnn4cccnc34)c(N3CCC3)cc2C1=O [Example 563, N-[6-(azetidin-1-yl)-2-[(2R)-2-fluoro-3-hydroxy-3-methyl-butyl]-1-oxo-isoindolin-5-yl]pyrazolo[1,5-a]pyrimidine-3-carboxamide] | 7.48
CC(C)(O)[C@]1(C)Cc2cc(NC(=O)c3cnn4cccnc34)c(N3CCC(CO)CC3)cc2O1 [Example 354, (S)—N-(6-(4-(Hydroxymethyl)piperidin-1-yl)-2-(2-hydroxypropan-2-yl)-2-methyl-2,3-dihydrobenzofuran-5-yl)pyrazolo[1,5-a]pyrimidine-3-carboxamide] | 8.52
CC1(C)Cc2cc(NC(=O)c3cnn4cccnc34)c(N3CCC4(CC3)CNC4=O)cc2O1 [Example 111, N-[2,2-dimethyl-6-(3-oxo-2,7-diazaspiro[3.5]nonan-7-yl)-3H-benzofuran-5-yl]pyrazolo[1,5-a]pyrimidine-3-carboxamide] | 8.32
CN(C)c1cc2c(cc1NC(=O)c1cnn3cccnc13)CN(C[C@@H](F)C(C)(C)O)C2=O [Example 570, N-[6-(dimethylamino)-2-[(2R)-2-fluoro-3-hydroxy-3-methyl-butyl]-1-oxo-isoindolin-5-yl]pyrazolo[1,5-a]pyrimidine-3-carboxamide] | 9.20

Results, then the compound that gave them:

pKi | SMILES
6.20 | CC1(C)Cc2cc(NC(=O)c3cnn4cccnc34)c(N3CCCC(c4ccn[nH]4)C3)cc2O1 (stereo not shown) [Example 190, N-[2,2-dimethyl-6-[3-(1H-pyrazol-5-yl)-1-piperidyl]-3H-benzofuran-5-yl]pyrazolo[1,5-a]pyrimidine-3-carboxamide]
8.14 | CN1CCC2(CC1)Cc1cc(NC(=O)c3cnn4cccnc34)c(OCC(F)F)cc1O2 [Example 378, N-(6-(2,2-difluoroethoxy)-1′-methyl-3H-spiro[benzofuran-2,4′-piperidin]-5-yl)pyrazolo[1,5-a]pyrimidine-3-carboxamide]
7.12 | C[C@]1(O)COc2cc(N3CCC(n4ccnc4)CC3)c(NC(=O)c3cnn4cccnc34)cc2C1 [Example 428, (R)-N-(7-(4-(1H-imidazol-1-yl)piperidin-1-yl)-3-hydroxy-3-methylchroman-6-yl)pyrazolo[1,5-a]pyrimidine-3-carboxamide]
5.96 | C[C@@]1(CO)Cc2cc(NC(=O)c3cnn4cccnc34)c(N3C[C@@H]4[C@H](C3)[C@@H]4C(N)=O)cc2O1 [Example 349, N-((S)-6-((1R,5S,6R)-6-carbamoyl-3-azabicyclo[3.1.0]hexan-3-yl)-2-(hydroxymethyl)-2-methyl-2,3-dihydrobenzofuran-5-yl)pyrazolo[1,5-a]pyrimidine-3-carboxamide]
7.10 | CC1(C)Cc2cc(NC(=O)c3cnn4cccnc34)c(N3CCC4(COC4)C3)cc2O1 [Example 107, N-(2,2-dimethyl-6-(2-oxa-6-azaspiro[3.4]octan-6-yl)-2,3-dihydrobenzofuran-5-yl)pyrazolo[1,5-a]pyrimidine-3-carboxamide]
7.36 | CCN1CCN(c2cc3c(cc2NC(=O)c2cnn4cccnc24)CC(C)(C)O3)CC1 [Example 453, N-(6-(4-ethylpiperazin-1-yl)-2,2-dimethyl-2,3-dihydrobenzofuran-5-yl)pyrazolo[1,5-a]pyrimidine-3-carboxamide]
8.22 | C[C@@]1(O)COc2cc(N3CCN(CC(N)=O)CC3)c(NC(=O)c3cnn4cccnc34)cc2C1 [Example 425, (S)-N-(7-(4-(2-amino-2-oxoethyl)piperazin-1-yl)-3-hydroxy-3-methylchroman-6-yl)pyrazolo[1,5-a]pyrimidine-3-carboxamide]
7.44 | C[C@]1(CO)Cc2cc(NC(=O)c3cnn4cccnc34)c(N3CC[C@@H](F)C3)cc2O1 [Example 58, N-[(2R)-6-[(3R)-3-Fluoropyrrolidin-1-yl]-2-(hydroxymethyl)-2-methyl-3H-benzofuran-5-yl]pyrazolo[1,5-a]pyrimidine-3-carboxamide]
6.41 | CN1CCC(c2cc3c(cc2NC(=O)c2cnn4cccnc24)CC(C)(C)O3)CC1 [Example 63, N-[2,2-Dimethyl-6-(1-methyl-4-piperidyl)-3H-benzofuran-5-yl]pyrazolo[1,5-a]pyrimidine-3-carboxamide]
7.07 | CN(Cc1ccc(C#N)cc1)c1cc2c(cc1NC(=O)c1cnn3cccnc13)CC(C)(C)O2 [Example 205, N-(6-((4-cyanobenzyl)(methyl)amino)-2,2-dimethyl-2,3-dihydrobenzofuran-5-yl)pyrazolo[1,5-a]pyrimidine-3-carboxamide]
8.34 | C[C@]1(CO)Cc2cc(NC(=O)c3cnn4cccnc34)c(N3CCC4(CC3)CNC4=O)cc2O1 [Example 320, (R)-N-(2-(hydroxymethyl)-2-methyl-6-(1-oxo-2,7-diazaspiro[3.5]nonan-7-yl)-2,3-dihydrobenzofuran-5-yl)pyrazolo[1,5-a]pyrimidine-3-carboxamide]
7.43 | CC(C)N1Cc2cc(NC(=O)c3cnn4cc(C(N)=O)cnc34)c(N3CCOCC3)cc2C1=O [Example 486, N3-(2-isopropyl-6-morpholino-1-oxo-isoindolin-5-yl)pyrazolo[1,5-a]pyrimidine-3,6-dicarboxamide]

From US10988478B1, “Pyrazolo[1,5a]pyrimidine derivatives as IRAK4 modulators” (Genentech, Inc., priority 2015, dated 2021)
